The data set has as its system patients with bipolar disorder. As to the kind of experiment: Side effects reported in patient case reports. In kind it is in vivo, human.

This note sets out measurements from patent US8138169B2, “Combination therapy for bipolar disorder” (ComgenRx, Inc., priority 2008, dated 2012).

Consider `CN(C)CCOC(c1ccccc1)c1ccccc1` [Benadryl], for which, for the setting “Example 42: Benadryl 1x/day for akisthisia under Geodon”, the akisthisia result is “significant improvement”.
Take `O=C1Cc2cc(CCN3CCN(c4nsc5ccccc45)CC3)c(Cl)cc2N1` [Geodon, ziprasidone]: the tolerability entry (Example 42: Geodon 80 mg/day, felt like crawling out of their skin) is listed as “could not tolerate the Geodon”.
With `OCCOCCN1CCN(C2=Nc3ccccc3Sc3ccccc32)CC1` [Seroquel, quetiapine fumurate], under “Example 15: Seroquel given by their psychiatrist”, the “effect on blood sugar” value was “elevated their blood sugar”. The sedation result (Example 18: Seroquel 400 mg) is given as “excessive sedation in the AM”.
On to `[Li]` [lithium], for which the side effects result by setting is: (Example 7: lithium 300 mg tid, stopped) “intolerable side effects”; (Example 21: lithium 600 mg/day, improved at 300 mg) “tremulousness and stomach discomfort along with diarrhea”.
